In ChEMBL document CHEMBL1201862, “PubChem BioAssay data set” (2004):
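A five-concentration, 48-hour dose response in 96-well plates underlies each endpoint, interpolated linearly between surrounding concentrations. GI50: concentration for 50% inhibition of growth.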 Active and inactive are the calls of the source. Cut-off read from the data, not from the text of the source: active = GI50 up to about 1.1 µM and inactive = higher.

Legend:
Experiment in all cases: DTP human tumour cell line panel, 48 h
DMS-114 = system: DMS-114
DMS-273 = system: DMS-273
HOP-18 = system: HOP-18
KM-20L2 = system: KM-20L2
M19-MEL = system: M19-MEL
SNB-78 = system: SNB-78
LXFL 529 = system: LXFL 529
RXF 631 = system: RXF 631
XF498 = system: XF498

Measured: GI50

CC(C)[Si](OCC1CC(C[C@H]2CC(C[C@H]3C[C@@H](CO[Si](C(C)C)(C(C)C)C(C)C)OC(C)(C)O3)OC(C)(C)O2)OC(C)(C)O1)(C(C)C)C(C)C (some centres not stated)
inactive: DMS-114 > 100 µM | DMS-273 > 100 µM | HOP-18 > 100 µM | KM-20L2 > 100 µM | M19-MEL > 100 µM | SNB-78 > 100 µM

O=C(O)c1ccc([N+](=O)[O-])c2c(=O)c3ccccc3[nH]c12
inactive: DMS-114 > 100 µM | DMS-273 > 100 µM | HOP-18 > 100 µM | KM-20L2 > 100 µM | LXFL 529 > 100 µM | M19-MEL > 100 µM | RXF 631 > 100 µM | SNB-78 > 100 µM

Cc1ccc(Cl)c(NC(=O)C(=O)C(C(=O)c2ccncc2)C2OC(=O)c3ccccc32)c1 (configuration not stated)
inactive: DMS-114 > 100 µM | HOP-18 > 100 µM | LXFL 529 > 100 µM | M19-MEL > 100 µM | RXF 631 > 100 µM | SNB-78 > 100 µM | XF498 > 100 µM

COc1ccc2oc(-c3cc4cc(OC)ccc4o3)cc2c1
inactive: DMS-273 > 100 µM | KM-20L2 > 100 µM | LXFL 529 > 100 µM | RXF 631 > 100 µM | SNB-78 > 100 µM | XF498 > 100 µM

CN(CC(=O)O)S(=O)(=O)c1ccc(F)cc1
inactive: DMS-273 > 100 µM | HOP-18 > 100 µM | KM-20L2 > 100 µM | LXFL 529 > 100 µM | M19-MEL > 100 µM | RXF 631 > 100 µM | XF498 > 100 µM

CCc1ccccc1NC(=O)/C(CC(=O)c1c(C)[n+]([O-])c2ccccc2[n+]1[O-])=N\NS(=O)(=O)c1ccc(C)cc1
inactive: DMS-114 12.3 µM | DMS-273 35.4 µM | KM-20L2 > 100 µM | LXFL 529 26.3 µM | M19-MEL 16 µM | RXF 631 > 100 µM | SNB-78 33.7 µM

Cc1ccc(NC(=O)CCc2nnc3s/c(=C\c4cccc([N+](=O)[O-])c4)c(=O)n23)cc1
inactive: DMS-114 > 100 µM | DMS-273 > 100 µM | HOP-18 > 100 µM | KM-20L2 > 100 µM | LXFL 529 > 100 µM | M19-MEL > 100 µM | RXF 631 60 µM | SNB-78 > 100 µM | XF498 > 100 µM

CCCCN1C(=O)C2c3[nH]c4ccccc4c3C3CCCCC3C2C1=O.CCCCN1C(=O)C2c3[nH]c4ccccc4c3[C@@H]3CCCCC3C2C1=O (configuration not stated)
inactive: DMS-114 12.9 µM | DMS-273 10.3 µM | HOP-18 2.26 µM | KM-20L2 36.6 µM | LXFL 529 13.6 µM | M19-MEL 37.2 µM | RXF 631 13.7 µM | SNB-78 15 µM | XF498 12.5 µM

COC(=O)N/N=C(/Cc1occc(=O)c1O)C(=O)Nc1ccc([N+](=O)[O-])cc1[N+](=O)[O-]
inactive: DMS-114 > 100 µM | DMS-273 > 100 µM | HOP-18 > 100 µM | KM-20L2 > 100 µM | LXFL 529 > 100 µM | M19-MEL > 100 µM | SNB-78 > 100 µM | XF498 > 100 µM

COc1ccc(-c2cc(=O)c3ccccc3o2)cc1N
inactive: DMS-114 34 µM | DMS-273 41.3 µM | HOP-18 17.7 µM | KM-20L2 34.1 µM | LXFL 529 35.7 µM | M19-MEL 86.1 µM | RXF 631 42.3 µM | SNB-78 68.4 µM | XF498 18.2 µM

O/N=C(\c1nc2ccc(Cl)cc2nc1O)C(O)c1ccc(Cl)cc1Cl (configuration not stated)
inactive: DMS-114 > 100 µM | DMS-273 > 100 µM | KM-20L2 > 100 µM | LXFL 529 > 100 µM | M19-MEL > 100 µM | RXF 631 > 100 µM | SNB-78 > 100 µM | XF498 > 100 µM

Cc1cc(Cl)ccc1N1C(=O)C(=O)C(c2nc3ccccc3o2)C(=O)C1=O
inactive: DMS-114 68.9 µM | DMS-273 > 100 µM | HOP-18 > 100 µM | KM-20L2 > 100 µM | LXFL 529 71.3 µM | M19-MEL > 100 µM | SNB-78 > 100 µM | XF498 > 100 µM

COc1ccc(/C=[N+](\[O-])[C@H](COCc2ccccc2)c2ccccc2)cc1
inactive: DMS-114 > 100 µM | DMS-273 > 100 µM | HOP-18 57.4 µM | KM-20L2 > 100 µM | LXFL 529 77.8 µM | RXF 631 > 100 µM | SNB-78 > 100 µM | XF498 > 100 µM

CC(=O)OC(=O)O/C=C\CCl
inactive: DMS-114 > 100 µM | DMS-273 62.8 µM | HOP-18 > 100 µM | KM-20L2 > 100 µM | LXFL 529 > 100 µM | M19-MEL > 100 µM | RXF 631 > 100 µM | SNB-78 > 100 µM

COCC(O)CN1C(N)=NC(O)C1O (configuration not stated)
inactive: DMS-114 > 100 µM | DMS-273 > 10 µM | HOP-18 > 100 µM | KM-20L2 > 100 µM | LXFL 529 > 100 µM | M19-MEL > 100 µM | SNB-78 > 100 µM

C/C(CC(=O)Nc1ccc(Cl)c(Cl)c1)=N/NC(=O)C[n+]1ccccc1
inactive: DMS-114 28.4 µM | DMS-273 40.9 µM | HOP-18 > 100 µM | KM-20L2 76.9 µM | LXFL 529 66.7 µM | M19-MEL > 100 µM | SNB-78 > 100 µM | XF498 > 100 µM

C[n+]1cccc(NC(=O)c2ccc(NC(=O)C34CCC(C(=O)Nc5ccc(C(=O)Nc6ccc[n+](C)c6)cc5)(CC3)CC4)cc2)c1
inactive: DMS-114 13.8 µM | DMS-273 6.82 µM | HOP-18 25.2 µM | KM-20L2 > 100 µM | LXFL 529 2.81 µM | M19-MEL 54.1 µM | SNB-78 > 100 µM

COc1cc(C2C(C(=O)Nc3cc(F)c(F)cc3F)=C(C)NC(C)=C2C(=O)Nc2cc(F)c(F)cc2F)ccc1O
inactive: DMS-114 14 µM | KM-20L2 32 µM | LXFL 529 21.5 µM | M19-MEL 23.4 µM | RXF 631 15 µM | SNB-78 22.5 µM | XF498 4.66 µM

COc1ccc(C2ON(c3ccccc3)CC=C2C)cc1 (configuration not stated)
inactive: DMS-273 64.7 µM | KM-20L2 5.48 µM | LXFL 529 66.8 µM | M19-MEL 43.2 µM | RXF 631 46.6 µM | SNB-78 > 100 µM | XF498 95.7 µM

CC(C(=O)[O-])S(=O)(=O)O.CCc1c2cc(OC)c(OC)cc2cc2c3cc(OC)c(OC)cc3cc[n+]12
inactive: DMS-114 7.83 µM | DMS-273 45.2 µM | HOP-18 68.1 µM | KM-20L2 > 100 µM | LXFL 529 5.09 µM | M19-MEL 13.6 µM | SNB-78 33.7 µM | XF498 5.64 µM

Cc1ccc(NC(=O)c2cccc([N+](=O)[O-])c2O)c([N+](=O)[O-])c1
inactive: DMS-114 12.6 µM | DMS-273 11.7 µM | HOP-18 19.2 µM | KM-20L2 18.7 µM | LXFL 529 13 µM | M19-MEL 14.3 µM | RXF 631 12.3 µM | SNB-78 19.4 µM | XF498 20.8 µM

Cn1c2ccccc2c2ccc3c(c21)C(=O)C=CC3=O
inactive: DMS-114 8.26 µM | DMS-273 12.9 µM | HOP-18 2 µM | KM-20L2 17.1 µM | LXFL 529 2.95 µM | M19-MEL 10.5 µM | SNB-78 21.1 µM | XF498 2.15 µM

CCN(CC)c1ccc(/N=N/c2ccc([N+](=O)[O-])cc2OC(=O)/C=C/c2ccccc2)c(OC(=O)/C=C/c2ccccc2)c1
inactive: DMS-114 3.49 µM | DMS-273 5.5 µM | HOP-18 1.7 µM | LXFL 529 21.5 µM | M19-MEL 5 µM | RXF 631 > 100 µM | SNB-78 > 100 µM | XF498 6.82 µM
